≈ marks a conversion by molar mass, not a printed value. Like-named read-outs stand apart in the source and are kept apart here.
Tests used:
Thermodynamic solubility = type: physicochemical; details: thermodynamic from solid
[1] = Effect of oxygen (high oxygen content air or N2); type: physicochemical; details: high oxygen content air or inert atmosphere (N2)
Excerpt: Oxidative degradation of leflutrozole is the primary pathway by which leflutrozole degrades outside of the synthesis process. Defluorination and oxidation that coincides with removal of the […] moiety yields the compound of Formula IV.

CYP2D6 = molecular target: T1, CYP2D6 (Homo sapiens, UniProt P10635); test: CYP inhibition, pooled human liver microsomes, probe substrates; type: in vitro ADME; details: up to 100 μM
T1 construct: assessed by pooled human liver microsomes using enzyme selective probe substrates; from tissue; host or cells: pooled human liver microsomes
T1 sequence (P10635 whole entry): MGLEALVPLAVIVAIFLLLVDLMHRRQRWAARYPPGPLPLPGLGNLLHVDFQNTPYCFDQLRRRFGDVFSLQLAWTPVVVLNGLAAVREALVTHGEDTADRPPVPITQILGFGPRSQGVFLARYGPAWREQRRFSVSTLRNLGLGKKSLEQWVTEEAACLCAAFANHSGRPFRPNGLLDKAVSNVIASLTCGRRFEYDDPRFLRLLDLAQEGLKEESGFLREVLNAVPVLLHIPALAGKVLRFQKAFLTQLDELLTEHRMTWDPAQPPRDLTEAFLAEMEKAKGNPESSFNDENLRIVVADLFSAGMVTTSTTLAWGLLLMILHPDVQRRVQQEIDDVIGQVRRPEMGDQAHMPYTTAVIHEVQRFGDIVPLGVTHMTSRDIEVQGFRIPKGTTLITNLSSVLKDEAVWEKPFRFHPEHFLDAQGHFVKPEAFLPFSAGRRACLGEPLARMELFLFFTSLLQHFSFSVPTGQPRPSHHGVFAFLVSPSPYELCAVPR

CYP2E1 = molecular target: T2, CYP2E1 (Homo sapiens, UniProt P05181); test: as above; type: in vitro ADME; details: up to 100 μM
T2 construct: assessed by pooled human liver microsomes using enzyme selective probe substrates; from tissue; host or cells: pooled human liver microsomes
T2 sequence (P05181 whole entry): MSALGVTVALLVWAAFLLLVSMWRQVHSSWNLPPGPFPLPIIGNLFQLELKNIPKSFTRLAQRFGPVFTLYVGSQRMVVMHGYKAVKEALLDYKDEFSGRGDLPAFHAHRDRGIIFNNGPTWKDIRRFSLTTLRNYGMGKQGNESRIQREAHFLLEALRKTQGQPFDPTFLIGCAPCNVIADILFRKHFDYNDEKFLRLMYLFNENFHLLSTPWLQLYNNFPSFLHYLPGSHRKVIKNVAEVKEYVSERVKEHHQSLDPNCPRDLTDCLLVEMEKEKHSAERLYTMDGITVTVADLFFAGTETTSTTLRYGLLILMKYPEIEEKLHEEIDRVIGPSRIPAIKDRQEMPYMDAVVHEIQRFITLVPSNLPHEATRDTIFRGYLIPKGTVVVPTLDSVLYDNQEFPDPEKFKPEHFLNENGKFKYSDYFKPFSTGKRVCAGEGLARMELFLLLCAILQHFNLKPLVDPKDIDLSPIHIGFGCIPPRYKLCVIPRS

[2] = molecular target: T3, breast cancer resistance protein (Homo sapiens, UniProt Q9UNQ0); test: Breast cancer resistance protein inhibition; type: in vitro ADME; details: at concentrations above 200 μM
T3 sequence (Q9UNQ0 1-655): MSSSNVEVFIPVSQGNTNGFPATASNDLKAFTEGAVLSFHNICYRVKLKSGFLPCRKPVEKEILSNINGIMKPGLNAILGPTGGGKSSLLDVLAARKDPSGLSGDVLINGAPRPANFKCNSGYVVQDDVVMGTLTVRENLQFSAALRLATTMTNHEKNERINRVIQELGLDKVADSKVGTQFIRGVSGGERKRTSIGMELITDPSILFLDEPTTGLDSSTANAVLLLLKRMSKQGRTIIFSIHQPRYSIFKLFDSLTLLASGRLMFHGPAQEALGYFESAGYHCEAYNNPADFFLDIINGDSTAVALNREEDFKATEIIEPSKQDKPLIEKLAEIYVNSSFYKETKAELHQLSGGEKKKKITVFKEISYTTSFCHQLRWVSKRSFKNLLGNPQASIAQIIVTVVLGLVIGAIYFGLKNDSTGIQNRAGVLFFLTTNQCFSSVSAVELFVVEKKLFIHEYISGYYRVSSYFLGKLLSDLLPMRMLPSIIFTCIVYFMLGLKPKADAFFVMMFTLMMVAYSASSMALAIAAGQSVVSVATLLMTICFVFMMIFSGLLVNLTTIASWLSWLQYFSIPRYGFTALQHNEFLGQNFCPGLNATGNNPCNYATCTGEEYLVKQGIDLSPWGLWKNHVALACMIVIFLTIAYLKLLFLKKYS

Pharmacokinetics in rats = type: in vivo; details: for AUC(0-inf) / half-life / AUC(0-t) / Cmax: 1 mg/kg; for AUC(0-t): AUC 0-24^1/48^2 h
CYP2A6 = molecular target: T4, CYP2A6 (Homo sapiens, UniProt P11509); test: CYP inhibition, pooled human liver microsomes, probe substrates; type: in vitro ADME
T4 construct: assessed by pooled human liver microsomes using enzyme selective probe substrates; from tissue; host or cells: pooled human liver microsomes
T4 sequence (P11509 1-494): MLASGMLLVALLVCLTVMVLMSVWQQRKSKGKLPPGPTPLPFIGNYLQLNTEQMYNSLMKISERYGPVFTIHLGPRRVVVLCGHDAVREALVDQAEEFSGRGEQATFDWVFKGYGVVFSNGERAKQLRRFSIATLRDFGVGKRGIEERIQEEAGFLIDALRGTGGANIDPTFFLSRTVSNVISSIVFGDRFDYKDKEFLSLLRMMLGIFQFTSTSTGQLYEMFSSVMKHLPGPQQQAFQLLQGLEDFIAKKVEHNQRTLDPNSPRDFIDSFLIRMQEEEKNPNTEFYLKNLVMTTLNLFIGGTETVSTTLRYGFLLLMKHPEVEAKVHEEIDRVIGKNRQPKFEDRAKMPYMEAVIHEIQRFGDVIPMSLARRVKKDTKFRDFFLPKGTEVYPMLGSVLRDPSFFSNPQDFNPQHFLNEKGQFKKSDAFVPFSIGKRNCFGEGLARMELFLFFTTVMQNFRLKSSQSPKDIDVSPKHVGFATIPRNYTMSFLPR

CYP1A2 = molecular target: T5, CYP1A2 (Homo sapiens, UniProt P05177); test: as above; type: in vitro ADME; details: up to 100 μM
T5 construct: assessed by pooled human liver microsomes using enzyme selective probe substrates; from tissue; host or cells: pooled human liver microsomes
T5 sequence (P05177 1-516): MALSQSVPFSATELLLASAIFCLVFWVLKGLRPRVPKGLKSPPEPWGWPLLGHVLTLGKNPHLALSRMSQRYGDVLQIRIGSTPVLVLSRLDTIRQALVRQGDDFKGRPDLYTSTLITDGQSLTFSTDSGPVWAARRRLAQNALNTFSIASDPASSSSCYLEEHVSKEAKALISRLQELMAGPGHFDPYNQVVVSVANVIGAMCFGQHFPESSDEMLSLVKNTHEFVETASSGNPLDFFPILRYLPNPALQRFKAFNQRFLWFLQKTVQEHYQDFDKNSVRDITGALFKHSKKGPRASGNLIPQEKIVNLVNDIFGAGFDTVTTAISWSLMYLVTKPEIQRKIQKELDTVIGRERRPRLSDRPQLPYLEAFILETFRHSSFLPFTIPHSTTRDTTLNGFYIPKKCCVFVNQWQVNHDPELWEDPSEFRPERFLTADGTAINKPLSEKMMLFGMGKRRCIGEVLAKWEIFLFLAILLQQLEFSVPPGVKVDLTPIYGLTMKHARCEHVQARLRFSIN

[3] = rat, in vivo, iv, 1 mg/kg i.v., PEG200-0.9% Saline-solution 40/60
[4] = rat, in vivo, po, 1 mg/kg p.o., PEG200-water-solution 40/60
[5] = rat, in vivo, po, 1 mg/kg p.o., Suspension 0.5% HPC

**Q.** Which solubility thermodynamic (Thermodynamic solubility; 0.05 M potassium biphthalate buffer, aqueous buffer, 0.05M buffer pH 3 - Potassium Biphthalate) does the source give for `N#Cc1ccc(C(F)(c2ccc(C#N)cc2)n2cncn2)cc1` [Form A leflutrozole, 4-[(4-cyanophenyl)-fluoro-(1,2,4-triazol-1-yl)methyl]benzonitrile] here?
**A.** Its solubility thermodynamic is < 30 µg/mL.

**Q.** What about the solubility thermodynamic (Thermodynamic solubility; 0.05 M potassium chloride buffer, aqueous buffer, 0.05M buffer pH 1 - Potassium Chloride) of the same molecule?
**A.** Its solubility thermodynamic is < 30 µg/mL.

**Q.** And the solubility thermodynamic (Thermodynamic solubility; 0.05 M potassium phosphate buffer, aqueous buffer, 0.05M buffer pH 6.86 - Potassium Phosphate)?
**A.** Its solubility thermodynamic is < 30 µg/mL.

**Q.** And the solubility thermodynamic (Thermodynamic solubility; 0.05 M sodium acetate buffer, aqueous buffer, 0.05M buffer pH 4.63 - Sodium Acetate)?
**A.** The solubility thermodynamic was < 30 µg/mL.

**Q.** And the solubility thermodynamic (Thermodynamic solubility; 1% Cremophor EL in water, aqueous with cosolvent or surfactant or cyclodextrin)?
**A.** The solubility thermodynamic was < 30 µg/mL.

**Q.** What about the solubility thermodynamic (Thermodynamic solubility; 1% Tween 80 in water, aqueous with cosolvent or surfactant or cyclodextrin) of the same molecule?
**A.** Its solubility thermodynamic is < 30 µg/mL.

**Q.** And the solubility thermodynamic (Thermodynamic solubility; 1% sodium dioctyl sulfosuccinate in water, aqueous with cosolvent or surfactant or cyclodextrin)?
**A.** The solubility thermodynamic was 170 µg/mL (≈ 561 µM).

**Q.** What about the solubility thermodynamic (Thermodynamic solubility; 1% sodium lauryl sulfate in water, aqueous with cosolvent or surfactant or cyclodextrin) of the same molecule?
**A.** Its solubility thermodynamic is 470 µg/mL (≈ 1550 µM).

**Q.** And the solubility thermodynamic (Thermodynamic solubility; 10% Cremophor EL in water, aqueous with cosolvent or surfactant or cyclodextrin)?
**A.** Its solubility thermodynamic is 190 µg/mL (≈ 626 µM).

**Q.** What about the solubility thermodynamic (Thermodynamic solubility; 10% PEG400 in water, aqueous with cosolvent or surfactant or cyclodextrin) of the same molecule?
**A.** Its solubility thermodynamic is < 30 µg/mL.

**Q.** What about the solubility thermodynamic (Thermodynamic solubility; 10% PG in water, aqueous with cosolvent or surfactant or cyclodextrin) of the same molecule?
**A.** The solubility thermodynamic was < 30 µg/mL.

**Q.** And the solubility thermodynamic (Thermodynamic solubility; 10% ethanol in water, aqueous with cosolvent or surfactant or cyclodextrin)?
**A.** Its solubility thermodynamic is < 30 µg/mL.

**Q.** And the solubility thermodynamic (Thermodynamic solubility; 20% hydroxypropyl β-cyclodextrin in water, aqueous with cosolvent or surfactant or cyclodextrin)?
**A.** Its solubility thermodynamic is 870 µg/mL (≈ 2870 µM).

**Q.** What about the solubility thermodynamic (Thermodynamic solubility; 20% sulfobutyl ether β-cyclodextrin (Captisol) in water, aqueous with cosolvent or surfactant or cyclodextrin) of the same molecule?
**A.** The solubility thermodynamic was 1050 µg/mL (≈ 3460 µM).

**Q.** What about the solubility thermodynamic (Thermodynamic solubility; Cremophor EL, organic solvent or mixture) of the same molecule?
**A.** The solubility thermodynamic was 280 µg/mL (≈ 923 µM).

**Q.** What about the solubility thermodynamic (Thermodynamic solubility; FaSSIF) of the same molecule?
**A.** The solubility thermodynamic was < 30 µg/mL.

**Q.** And the solubility thermodynamic (Thermodynamic solubility; FeSSIF)?
**A.** Its solubility thermodynamic is < 30 µg/mL.

**Q.** What about the solubility thermodynamic (Thermodynamic solubility; Miglyol, oil or lipid) of the same molecule?
**A.** Its solubility thermodynamic is 720 µg/mL (≈ 2370 µM).

**Q.** And the solubility thermodynamic (Thermodynamic solubility; SGF, simulated gastric fluid)?
**A.** Its solubility thermodynamic is < 30 µg/mL.

**Q.** And the solubility thermodynamic (Thermodynamic solubility; aqueous buffer, 0.05M buffer pH 7.4 - Potassium Phosphate)?
**A.** Its solubility thermodynamic is < 30 µg/mL.

**Q.** What about the solubility thermodynamic (Thermodynamic solubility; aqueous buffer, 0.05M buffer pH 9 - Boric Acid) of the same molecule?
**A.** The solubility thermodynamic was < 30 µg/mL.

**Q.** What about the solubility thermodynamic (Thermodynamic solubility; aqueous buffer, pH 12 - 0.1N Sodium Hydroxide) of the same molecule?
**A.** The solubility thermodynamic was < 30 µg/mL.

**Q.** What about the solubility thermodynamic (Thermodynamic solubility; ethanol, organic solvent or mixture) of the same molecule?
**A.** The solubility thermodynamic was 3840 µg/mL (≈ 12700 µM).

**Q.** What about the solubility thermodynamic (Thermodynamic solubility; polyethylene glycol 400, organic solvent or mixture) of the same molecule?
**A.** The solubility thermodynamic was 6230 µg/mL (≈ 20500 µM).

**Q.** What about the solubility thermodynamic (Thermodynamic solubility; propylene glycol, organic solvent or mixture) of the same molecule?
**A.** Its solubility thermodynamic is 2270 µg/mL (≈ 7480 µM).

**Q.** And the solubility thermodynamic (Thermodynamic solubility; water)?
**A.** Its solubility thermodynamic is < 30 µg/mL.

**Q.** And the “degradation on exposure to air (in words)” value [1]?
**A.** The value was “does not degrade readily when exposed to air”.

**Q.** For `N#Cc1ccc(C(F)(c2ccc(C#N)cc2)n2cncn2)cc1` [leflutrozole, 4-[(4-cyanophenyl)-fluoro-(1,2,4-triazol-1-yl)methyl]benzonitrile], which IC50 (CYP2D6) is on record?
**A.** Its IC50 is > 50 µM.

**Q.** And the IC50 (CYP2E1)?
**A.** Its IC50 is > 50 µM.

**Q.** What about the “inhibition of breast cancer resistance protein” value [2] of the same molecule?
**A.** Its value is “not determined to be an inhibitor”.

**Q.** And the “BAV 0-inf” value (Pharmacokinetics in rats; 1 mg/kg p.o., Suspension 0.5% HPC)?
**A.** Its value is ≥100%.

**Q.** And the clearance (Pharmacokinetics in rats; [3])?
**A.** Its clearance is 0.383 mL/min.

**Q.** What about the AUC(0-inf) (Pharmacokinetics in rats; [3]) of the same molecule?
**A.** Its AUC(0-inf) is 123 µM·h.

**Q.** What about the half-life (Pharmacokinetics in rats; rat, in vivo, iv, 1 mg/kg i.v., PEG200-0.9% Saline-solution 40/60, read-out: T1/2 (converted)) of the same molecule?
**A.** Its half-life is 33.1 h.

**Q.** What about the AUC(0-t) (Pharmacokinetics in rats; [3]) of the same molecule?
**A.** Its AUC(0-t) is 79.4 µM·h.

**Q.** And the AUC(0-inf) (Pharmacokinetics in rats; [4])?
**A.** The AUC(0-inf) was 143 µM·h.

**Q.** What about the Cmax (Pharmacokinetics in rats; [4]) of the same molecule?
**A.** The Cmax was 1750 nM.

**Q.** And the half-life (Pharmacokinetics in rats; rat, in vivo, po, 1 mg/kg p.o., PEG200-water-solution 40/60, read-out: T1/2 (converted))?
**A.** The half-life was 49.7 h.

**Q.** And the AUC(0-inf) (Pharmacokinetics in rats; [5])?
**A.** Its AUC(0-inf) is 245 µM·h.

**Q.** What about the Cmax (Pharmacokinetics in rats; [5]) of the same molecule?
**A.** The Cmax was 1810 nM.

**Q.** What about the half-life (Pharmacokinetics in rats; rat, in vivo, po, 1 mg/kg p.o., Suspension 0.5% HPC, read-out: T1/2 (converted)) of the same molecule?
**A.** The half-life was 101 h.

**Q.** What about the AUC(0-t) (Pharmacokinetics in rats; [4]) of the same molecule?
**A.** Its AUC(0-t) is 70.2 µM·h.

**Q.** What about the AUC(0-t) (Pharmacokinetics in rats; [5]) of the same molecule?
**A.** Its AUC(0-t) is 163 µM·h.

**Q.** And the half-life (Pharmacokinetics in rats; rat, in vivo, po, read-out: half-life (converted))?
**A.** Its half-life is 101 h.

**Q.** What about the Ki (CYP2A6) of the same molecule?
**A.** The Ki was 2.56 µM.

**Q.** And the IC50 (CYP1A2)?
**A.** Its IC50 is > 50 µM.

Source: patent publication US20250188043A1 (ReproNovo SA, priority 2023, published 2025)
